# Data from ChEMBL document CHEMBL3991601, “The target landscape of clinical kinase drugs” (Science, 2017).
# pKd: −log10 of the molar value. Calls of active or inactive are those of the source. Rule as the data show it, for most assays here: actives have a measured Kd and inactives only a lower limit.
# Key:
# [1] = biological target: Tyrosine-protein kinase ABL2 (Homo sapiens, UniProt P42684)
# [2] = biological target: T1, AarF domain-containing protein kinase 1 (Homo sapiens, UniProt Q86TW2)
# T1 sequence (Q86TW2 whole entry): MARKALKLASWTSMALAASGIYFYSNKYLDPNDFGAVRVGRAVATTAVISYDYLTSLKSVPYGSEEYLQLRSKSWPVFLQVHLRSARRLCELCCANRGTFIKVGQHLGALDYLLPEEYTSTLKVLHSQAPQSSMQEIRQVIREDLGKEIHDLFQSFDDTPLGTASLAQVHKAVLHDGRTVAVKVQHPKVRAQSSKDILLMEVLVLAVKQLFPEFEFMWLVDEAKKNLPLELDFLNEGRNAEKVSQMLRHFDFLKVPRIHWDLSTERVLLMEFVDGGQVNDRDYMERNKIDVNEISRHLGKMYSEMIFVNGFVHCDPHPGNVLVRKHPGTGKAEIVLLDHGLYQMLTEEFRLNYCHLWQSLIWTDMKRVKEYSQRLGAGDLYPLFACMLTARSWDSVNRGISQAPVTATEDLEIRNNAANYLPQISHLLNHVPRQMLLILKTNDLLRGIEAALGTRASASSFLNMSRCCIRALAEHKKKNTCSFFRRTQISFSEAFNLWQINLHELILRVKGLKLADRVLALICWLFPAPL
# Aurora kinase A = biological target: T2, Aurora kinase A (Homo sapiens, UniProt O14965)
# T2 sequence (O14965 whole entry): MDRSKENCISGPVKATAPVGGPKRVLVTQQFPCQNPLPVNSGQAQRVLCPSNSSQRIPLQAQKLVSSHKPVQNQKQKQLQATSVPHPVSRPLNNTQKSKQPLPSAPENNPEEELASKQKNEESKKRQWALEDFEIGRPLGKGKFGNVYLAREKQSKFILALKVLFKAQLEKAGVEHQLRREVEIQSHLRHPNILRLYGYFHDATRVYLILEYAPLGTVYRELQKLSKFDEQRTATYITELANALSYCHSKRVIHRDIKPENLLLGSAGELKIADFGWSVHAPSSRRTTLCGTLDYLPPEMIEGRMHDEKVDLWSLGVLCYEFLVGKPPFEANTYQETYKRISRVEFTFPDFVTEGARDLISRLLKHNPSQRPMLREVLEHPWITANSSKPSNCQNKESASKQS
# Deoxycytidine kinase = Deoxycytidine kinase (Homo sapiens, UniProt P27707)
# [3] = biological target: Epithelial discoidin domain-containing receptor 1 (Homo sapiens, UniProt Q08345)
# [4] = biological target: Glycogen synthase kinase-3 alpha (Homo sapiens, UniProt P49840)
# [5] = biological target: Dual specificity mitogen-activated protein kinase kinase 1 (Homo sapiens, UniProt Q02750)
# [6] = biological target: T3, Dual specificity mitogen-activated protein kinase kinase 3 (Homo sapiens, UniProt P46734)
# T3 sequence (P46734 whole entry): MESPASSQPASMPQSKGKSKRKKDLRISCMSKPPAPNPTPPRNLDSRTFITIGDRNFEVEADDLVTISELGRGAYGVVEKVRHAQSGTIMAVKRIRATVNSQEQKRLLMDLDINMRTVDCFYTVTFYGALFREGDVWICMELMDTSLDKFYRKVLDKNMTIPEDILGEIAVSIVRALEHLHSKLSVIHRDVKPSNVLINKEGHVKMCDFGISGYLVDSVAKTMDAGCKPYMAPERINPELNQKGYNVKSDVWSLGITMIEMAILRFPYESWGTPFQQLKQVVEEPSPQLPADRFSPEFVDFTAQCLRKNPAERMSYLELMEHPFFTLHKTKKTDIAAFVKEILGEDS
# [7] = biological target: Platelet-derived growth factor receptor beta (Homo sapiens, UniProt P09619)
# [8] = biological target: Serine/threonine-protein kinase SIK3 (Homo sapiens, UniProt Q9Y2K2)
# TGF-beta receptor type-2 = TGF-beta receptor type-2 (Homo sapiens, UniProt P37173)
# [9] = biological target: Tyrosine-protein kinase Yes (Homo sapiens, UniProt P07947)
# [10] = biological target: Mitogen-activated protein kinase kinase kinase 20 (Homo sapiens, UniProt Q9NYL2)
# [11] = biological target: T4, General transcription and DNA repair factor IIH helicase subunit XPD (Homo sapiens, UniProt P18074); conditions: read-out: Kd apparent; k-562, colo 205, sk-n-be(2) and mv-4-11
# T4 sequence (P18074 whole entry): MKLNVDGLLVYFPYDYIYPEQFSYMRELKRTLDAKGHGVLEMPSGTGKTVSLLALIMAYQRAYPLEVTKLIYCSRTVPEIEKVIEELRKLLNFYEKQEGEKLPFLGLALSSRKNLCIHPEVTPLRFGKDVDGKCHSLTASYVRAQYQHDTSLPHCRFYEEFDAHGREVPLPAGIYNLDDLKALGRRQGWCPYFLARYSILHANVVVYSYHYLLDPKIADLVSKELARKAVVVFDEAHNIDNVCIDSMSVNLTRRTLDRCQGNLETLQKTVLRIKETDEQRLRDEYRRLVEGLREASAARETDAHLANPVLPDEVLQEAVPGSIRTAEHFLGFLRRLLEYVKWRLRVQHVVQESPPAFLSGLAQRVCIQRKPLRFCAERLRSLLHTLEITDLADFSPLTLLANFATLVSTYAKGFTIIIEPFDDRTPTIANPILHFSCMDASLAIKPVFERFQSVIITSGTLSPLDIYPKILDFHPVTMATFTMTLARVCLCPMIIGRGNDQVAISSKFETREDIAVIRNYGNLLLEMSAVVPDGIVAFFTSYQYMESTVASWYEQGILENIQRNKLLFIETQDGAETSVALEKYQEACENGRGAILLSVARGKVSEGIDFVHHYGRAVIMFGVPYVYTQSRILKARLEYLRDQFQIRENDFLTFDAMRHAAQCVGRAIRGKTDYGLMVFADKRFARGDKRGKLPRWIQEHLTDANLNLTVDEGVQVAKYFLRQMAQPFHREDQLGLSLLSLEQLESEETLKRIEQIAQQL
# Also: in the data inactive means no Kd found up to 30 µM.
# TGF-beta receptor type-2, sequence (P37173 whole entry): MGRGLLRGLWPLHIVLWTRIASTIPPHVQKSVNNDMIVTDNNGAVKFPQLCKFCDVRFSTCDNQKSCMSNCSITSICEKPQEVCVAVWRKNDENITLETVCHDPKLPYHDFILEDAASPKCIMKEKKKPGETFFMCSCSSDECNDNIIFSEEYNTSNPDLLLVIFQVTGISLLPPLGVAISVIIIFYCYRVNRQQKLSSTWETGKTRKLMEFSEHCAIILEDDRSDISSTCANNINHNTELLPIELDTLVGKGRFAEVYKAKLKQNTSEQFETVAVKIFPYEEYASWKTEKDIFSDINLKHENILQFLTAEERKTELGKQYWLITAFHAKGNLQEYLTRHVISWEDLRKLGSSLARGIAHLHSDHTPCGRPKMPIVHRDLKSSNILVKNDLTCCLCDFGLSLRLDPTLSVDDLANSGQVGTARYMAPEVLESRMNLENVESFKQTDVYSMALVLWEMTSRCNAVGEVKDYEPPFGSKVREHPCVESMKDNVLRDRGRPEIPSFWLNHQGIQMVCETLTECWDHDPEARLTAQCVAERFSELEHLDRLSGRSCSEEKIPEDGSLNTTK
# Tyrosine-protein kinase ABL2, sequence (P42684 whole entry, the tested form may be a part): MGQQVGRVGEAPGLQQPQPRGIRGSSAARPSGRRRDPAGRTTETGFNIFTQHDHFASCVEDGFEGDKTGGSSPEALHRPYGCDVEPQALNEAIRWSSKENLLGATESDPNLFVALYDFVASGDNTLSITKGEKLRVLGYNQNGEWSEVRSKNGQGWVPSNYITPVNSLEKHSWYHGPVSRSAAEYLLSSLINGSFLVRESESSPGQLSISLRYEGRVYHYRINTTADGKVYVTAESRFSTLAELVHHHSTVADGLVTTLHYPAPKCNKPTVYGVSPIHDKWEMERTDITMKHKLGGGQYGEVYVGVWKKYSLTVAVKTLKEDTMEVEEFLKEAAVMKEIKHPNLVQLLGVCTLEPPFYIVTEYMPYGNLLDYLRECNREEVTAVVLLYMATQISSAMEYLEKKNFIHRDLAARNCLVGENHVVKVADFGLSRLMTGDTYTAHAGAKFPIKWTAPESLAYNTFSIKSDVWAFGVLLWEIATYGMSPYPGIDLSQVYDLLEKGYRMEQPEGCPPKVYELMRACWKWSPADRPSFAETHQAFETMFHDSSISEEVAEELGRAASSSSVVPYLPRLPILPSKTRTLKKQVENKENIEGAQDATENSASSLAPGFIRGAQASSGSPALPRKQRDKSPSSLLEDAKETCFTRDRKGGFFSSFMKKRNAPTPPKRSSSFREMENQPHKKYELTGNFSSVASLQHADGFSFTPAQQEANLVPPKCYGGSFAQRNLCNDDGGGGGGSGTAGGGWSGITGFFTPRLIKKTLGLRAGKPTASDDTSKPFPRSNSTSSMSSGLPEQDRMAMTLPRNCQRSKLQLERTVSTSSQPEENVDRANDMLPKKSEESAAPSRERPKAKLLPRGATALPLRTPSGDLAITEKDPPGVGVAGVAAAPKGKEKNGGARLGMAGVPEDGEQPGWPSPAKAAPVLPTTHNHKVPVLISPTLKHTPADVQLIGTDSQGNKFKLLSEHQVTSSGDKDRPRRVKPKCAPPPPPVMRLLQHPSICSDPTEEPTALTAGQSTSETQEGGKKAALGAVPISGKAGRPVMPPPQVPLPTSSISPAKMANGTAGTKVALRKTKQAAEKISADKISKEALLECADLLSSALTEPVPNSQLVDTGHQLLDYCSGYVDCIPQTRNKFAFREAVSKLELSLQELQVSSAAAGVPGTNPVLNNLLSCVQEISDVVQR
# Platelet-derived growth factor receptor beta, sequence (P09619 whole entry): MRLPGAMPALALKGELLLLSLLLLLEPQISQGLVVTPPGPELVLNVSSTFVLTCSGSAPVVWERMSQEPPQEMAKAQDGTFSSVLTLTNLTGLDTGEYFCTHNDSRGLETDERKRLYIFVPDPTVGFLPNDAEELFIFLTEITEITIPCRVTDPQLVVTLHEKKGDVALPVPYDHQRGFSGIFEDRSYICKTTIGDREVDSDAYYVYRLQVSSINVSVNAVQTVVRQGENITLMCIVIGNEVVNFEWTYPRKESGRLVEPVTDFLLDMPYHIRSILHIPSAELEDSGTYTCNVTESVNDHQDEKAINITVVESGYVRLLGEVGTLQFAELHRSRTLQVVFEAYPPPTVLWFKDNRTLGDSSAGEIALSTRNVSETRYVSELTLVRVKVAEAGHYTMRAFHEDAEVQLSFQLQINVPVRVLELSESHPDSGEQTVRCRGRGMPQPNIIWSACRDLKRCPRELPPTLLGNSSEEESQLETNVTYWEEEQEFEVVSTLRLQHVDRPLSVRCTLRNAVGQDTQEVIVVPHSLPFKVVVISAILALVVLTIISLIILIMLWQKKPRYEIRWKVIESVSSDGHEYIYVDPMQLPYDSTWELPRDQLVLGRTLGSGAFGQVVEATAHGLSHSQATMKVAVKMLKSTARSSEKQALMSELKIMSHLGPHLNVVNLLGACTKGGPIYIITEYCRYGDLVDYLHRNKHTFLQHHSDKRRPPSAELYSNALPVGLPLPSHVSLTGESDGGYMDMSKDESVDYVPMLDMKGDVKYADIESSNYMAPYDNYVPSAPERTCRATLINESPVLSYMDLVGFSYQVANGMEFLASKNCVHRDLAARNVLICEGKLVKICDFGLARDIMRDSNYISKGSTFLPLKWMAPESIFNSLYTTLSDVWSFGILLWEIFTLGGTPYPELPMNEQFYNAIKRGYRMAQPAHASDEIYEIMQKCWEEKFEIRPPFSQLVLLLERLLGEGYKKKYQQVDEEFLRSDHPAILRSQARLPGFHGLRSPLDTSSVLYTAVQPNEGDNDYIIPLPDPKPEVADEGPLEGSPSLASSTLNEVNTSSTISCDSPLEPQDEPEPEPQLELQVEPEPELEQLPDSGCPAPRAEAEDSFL
# Mitogen-activated protein kinase kinase kinase 20, sequence (Q9NYL2 whole entry): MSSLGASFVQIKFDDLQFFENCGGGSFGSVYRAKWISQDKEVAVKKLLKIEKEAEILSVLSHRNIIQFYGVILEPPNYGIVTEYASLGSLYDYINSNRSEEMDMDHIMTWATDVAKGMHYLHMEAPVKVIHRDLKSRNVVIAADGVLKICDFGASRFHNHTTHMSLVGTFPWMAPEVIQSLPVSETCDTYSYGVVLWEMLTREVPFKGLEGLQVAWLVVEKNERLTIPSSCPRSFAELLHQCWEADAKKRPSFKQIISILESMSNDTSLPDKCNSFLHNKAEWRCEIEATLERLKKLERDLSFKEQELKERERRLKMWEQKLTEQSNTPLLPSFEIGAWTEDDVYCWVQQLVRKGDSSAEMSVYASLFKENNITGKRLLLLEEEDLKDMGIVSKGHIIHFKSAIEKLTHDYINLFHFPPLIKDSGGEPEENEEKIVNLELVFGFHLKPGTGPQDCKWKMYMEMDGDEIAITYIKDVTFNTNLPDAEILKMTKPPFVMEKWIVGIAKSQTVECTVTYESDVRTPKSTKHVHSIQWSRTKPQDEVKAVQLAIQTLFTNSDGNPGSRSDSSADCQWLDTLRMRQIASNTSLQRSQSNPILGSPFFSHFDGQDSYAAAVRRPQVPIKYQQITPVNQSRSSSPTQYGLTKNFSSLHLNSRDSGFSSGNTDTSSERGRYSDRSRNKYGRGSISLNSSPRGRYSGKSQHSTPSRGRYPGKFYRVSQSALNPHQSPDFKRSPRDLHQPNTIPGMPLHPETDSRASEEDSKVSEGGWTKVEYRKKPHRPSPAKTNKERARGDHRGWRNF
# Dual specificity mitogen-activated protein kinase kinase 1, sequence (Q02750 whole entry): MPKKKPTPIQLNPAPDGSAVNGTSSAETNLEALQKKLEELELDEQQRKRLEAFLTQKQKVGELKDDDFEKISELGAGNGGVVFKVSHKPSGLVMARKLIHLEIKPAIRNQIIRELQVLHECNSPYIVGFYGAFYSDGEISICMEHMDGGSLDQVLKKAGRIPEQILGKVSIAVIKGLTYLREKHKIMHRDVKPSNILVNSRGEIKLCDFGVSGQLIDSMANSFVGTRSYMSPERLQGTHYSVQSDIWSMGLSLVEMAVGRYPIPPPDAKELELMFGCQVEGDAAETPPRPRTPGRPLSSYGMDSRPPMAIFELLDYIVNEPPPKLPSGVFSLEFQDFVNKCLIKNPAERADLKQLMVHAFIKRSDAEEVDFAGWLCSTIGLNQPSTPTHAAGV
# Deoxycytidine kinase, sequence (P27707 whole entry, the tested form may be a part): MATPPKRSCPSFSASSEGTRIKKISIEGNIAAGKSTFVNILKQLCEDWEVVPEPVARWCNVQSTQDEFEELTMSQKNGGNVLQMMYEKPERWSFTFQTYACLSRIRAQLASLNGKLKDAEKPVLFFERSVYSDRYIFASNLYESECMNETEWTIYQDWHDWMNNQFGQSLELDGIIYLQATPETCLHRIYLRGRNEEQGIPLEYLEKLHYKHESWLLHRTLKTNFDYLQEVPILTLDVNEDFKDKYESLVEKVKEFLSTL
# Glycogen synthase kinase-3 alpha, sequence (P49840 whole entry): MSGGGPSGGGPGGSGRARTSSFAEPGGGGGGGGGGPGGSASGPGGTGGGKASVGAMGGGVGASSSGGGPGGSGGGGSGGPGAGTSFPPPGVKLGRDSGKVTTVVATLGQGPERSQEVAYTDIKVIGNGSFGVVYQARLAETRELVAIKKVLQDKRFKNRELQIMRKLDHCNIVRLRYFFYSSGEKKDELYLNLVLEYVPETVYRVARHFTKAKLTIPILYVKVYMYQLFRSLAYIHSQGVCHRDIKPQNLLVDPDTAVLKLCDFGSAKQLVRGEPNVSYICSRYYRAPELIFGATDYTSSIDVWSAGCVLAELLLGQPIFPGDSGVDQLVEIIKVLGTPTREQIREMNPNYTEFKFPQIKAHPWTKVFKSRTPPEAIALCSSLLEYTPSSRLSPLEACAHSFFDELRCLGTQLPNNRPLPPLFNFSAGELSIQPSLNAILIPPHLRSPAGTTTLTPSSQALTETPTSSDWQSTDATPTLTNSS
Kd [1],Kd [2],Kd (Aurora kinase A),Kd (Deoxycytidine kinase),Kd [3],Kd [4],Kd [5],Kd [6],Kd [7],Kd [8],Kd (TGF-beta receptor type-2),Kd [9],Kd [10],Kd [11],pKd [9],pKd [5],SMILES
> 30 µM (inactive),> 30 µM (inactive),> 30 µM (inactive),> 30 µM (inactive),> 30 µM (inactive),> 30 µM (inactive),> 30 µM (inactive),> 30 µM (inactive),> 30 µM (inactive),> 30 µM (inactive),> 30 µM (inactive),> 30 µM (inactive),> 30 µM (inactive),> 30 µM (inactive),–,–,C[C@@H](Oc1cc(C(=O)Nc2ccc(C(=O)N3CCN(C)CC3)cc2)nnc1N)c1c(Cl)ccc(F)c1Cl
> 30 µM (inactive),> 30 µM (inactive),> 30 µM (inactive),> 30 µM (inactive),> 30 µM (inactive),> 30 µM (inactive),> 30 µM (inactive),> 30 µM (inactive),> 30 µM (inactive),> 30 µM (inactive),> 30 µM (inactive),–,> 30 µM (inactive),> 30 µM (inactive),8.30,–,C=CC(=O)N1CCC[C@H](n2c(=O)n(-c3ccc(Oc4ccccc4)cc3)c3c(N)ncnc32)C1
> 30 µM (inactive),> 30 µM (inactive),> 30 µM (inactive),> 30 µM (inactive),0.314 µM (active),> 30 µM (inactive),> 30 µM (inactive),> 30 µM (inactive),> 30 µM (inactive),> 30 µM (inactive),> 30 µM (inactive),> 30 µM (inactive),> 30 µM (inactive),> 30 µM (inactive),–,–,COCc1c(-c2ccc(NC(=O)Nc3cc(C(F)(F)F)ccc3F)c(F)c2)c2c(N)ncnn2c1CN1CCOCC1
> 30 µM (inactive),> 30 µM (inactive),> 30 µM (inactive),> 30 µM (inactive),> 30 µM (inactive),> 30 µM (inactive),3.33 µM (active),> 30 µM (inactive),> 30 µM (inactive),> 30 µM (inactive),> 30 µM (inactive),0.337 µM (active),> 30 µM (inactive),> 30 µM (inactive),–,–,Nc1ncnc2c1c(-c1cccc(OCc3ccccc3)c1)cn2[C@H]1C[C@@H](CN2CCC2)C1 [AEW-541]
> 30 µM (inactive),> 30 µM (inactive),> 30 µM (inactive),> 30 µM (inactive),> 30 µM (inactive),> 30 µM (inactive),> 30 µM (inactive),> 30 µM (inactive),> 30 µM (inactive),> 30 µM (inactive),> 30 µM (inactive),6.27 µM (active),> 30 µM (inactive),> 30 µM (inactive),–,–,C=CC(=O)Nc1cc2c(Nc3ccc(F)c(Cl)c3)ncnc2cc1C#CC(C)(C)N1CCN(C)CC1 [AV-412 FREE BASE]
> 30 µM (inactive),> 30 µM (inactive),> 30 µM (inactive),> 30 µM (inactive),> 30 µM (inactive),> 30 µM (inactive),–,> 30 µM (inactive),> 30 µM (inactive),> 30 µM (inactive),> 30 µM (inactive),> 30 µM (inactive),> 30 µM (inactive),> 30 µM (inactive),–,–,Cc1cc(C(=O)NOCCO)c(Nc2ccc(I)cc2F)n(C)c1=O [AZD-8330]
> 30 µM (inactive),> 30 µM (inactive),> 30 µM (inactive),> 30 µM (inactive),> 30 µM (inactive),> 30 µM (inactive),> 30 µM (inactive),> 30 µM (inactive),> 30 µM (inactive),> 30 µM (inactive),> 30 µM (inactive),> 30 µM (inactive),> 30 µM (inactive),–,–,–,COc1c(OCCCN2CCOCC2)ccc2c1N=C(NC(=O)c1cnc(N)nc1)N1CCN=C21 [COPANLISIB]
0.008 µM (active),> 30 µM (inactive),0.003 µM (active),> 30 µM (inactive),–,> 30 µM (inactive),–,> 30 µM (inactive),> 30 µM (inactive),> 30 µM (inactive),> 30 µM (inactive),0.171 µM (active),> 30 µM (inactive),0.953 µM (active),–,5.15,CC(C)c1cc(CNc2nc(Nc3cc(C4CC4)[nH]n3)cc(N3CCN(C)CC3)n2)on1 [XL-228]

SMILES,Kd [1],Kd [2],Kd (Aurora kinase A),Kd (Deoxycytidine kinase),Kd [3],Kd [4],Kd [5],Kd [6],Kd [7],Kd [8],Kd (TGF-beta receptor type-2),Kd [9],Kd [10],Kd [11],pKd [9],pKd [5]
NC(=O)Nc1cc(-c2cccc(F)c2)sc1C(=O)N[C@H]1CCCNC1 [AZD-7762],0.899 µM (active),> 30 µM (inactive),> 30 µM (inactive),> 30 µM (inactive),> 30 µM (inactive),> 30 µM (inactive),2.04 µM (active),> 30 µM (inactive),0.552 µM (active),0.043 µM (active),> 30 µM (inactive),–,> 30 µM (inactive),> 30 µM (inactive),–,–
O=C(Nc1nc2cccc(-c3ccc(CN4CCS(=O)(=O)CC4)cc3)n2n1)C1CC1 [FILGOTINIB],> 30 µM (inactive),2.03 µM (active),> 30 µM (inactive),> 30 µM (inactive),> 30 µM (inactive),> 30 µM (inactive),> 30 µM (inactive),> 30 µM (inactive),> 30 µM (inactive),> 30 µM (inactive),> 30 µM (inactive),> 30 µM (inactive),> 30 µM (inactive),–,–,–
CCOc1cc2ncc(C#N)c(Nc3ccc(F)c(Cl)c3)c2cc1NC(=O)/C=C/CN(C)C [PELITINIB],–,> 30 µM (inactive),> 30 µM (inactive),> 30 µM (inactive),> 30 µM (inactive),> 30 µM (inactive),8.77 µM (active),> 30 µM (inactive),> 30 µM (inactive),> 30 µM (inactive),> 30 µM (inactive),> 30 µM (inactive),0.875 µM (active),> 30 µM (inactive),–,–
CNC(=O)c1cc(Oc2ccc(NC(=O)Nc3cc(C(C)(C)C)nn3-c3ccc4ncccc4c3)c(F)c2)ccn1 [REBASTINIB],0.135 µM (active),> 30 µM (inactive),> 30 µM (inactive),> 30 µM (inactive),0.272 µM (active),> 30 µM (inactive),> 30 µM (inactive),> 30 µM (inactive),> 30 µM (inactive),> 30 µM (inactive),> 30 µM (inactive),–,0.388 µM (active),> 30 µM (inactive),–,–
